Data: patent US20250230193A1, “CYCLIC COMPOUND HAVING SELECTIVE KRAS INHIBITORY EFFECT ON HRAS AND NRAS” (CHUGAI SEIYAKU KABUSHIKI KAISHA, priority 2022, published 2025)

Key:
[1] = target: GDP-bound NRAS wild-type protein (Homo sapiens, UniProt P01111); assay: Binding to NRAS by surface plasmon resonance (SPR), Single Cycle Kinetics; conditions: KD ratio, GDP-bound NRAS wild-type vs GDP-bound KRAS wild-type, SPR
[2] = target: GDP-bound HRAS wild-type protein (Homo sapiens, UniProt P01112); assay: Binding to HRAS by surface plasmon resonance (SPR), Single Cycle Kinetics; conditions: KD ratio, GDP-bound HRAS wild-type vs GDP-bound KRAS wild-type, SPR
Sequence of GDP-bound HRAS wild-type protein (P01112 whole entry): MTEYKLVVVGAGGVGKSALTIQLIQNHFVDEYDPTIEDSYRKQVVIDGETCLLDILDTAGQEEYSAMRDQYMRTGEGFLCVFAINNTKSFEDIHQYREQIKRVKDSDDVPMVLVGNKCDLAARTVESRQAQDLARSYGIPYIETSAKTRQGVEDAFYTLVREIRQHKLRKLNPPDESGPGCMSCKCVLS

Sequence of GDP-bound NRAS wild-type protein (P01111 whole entry): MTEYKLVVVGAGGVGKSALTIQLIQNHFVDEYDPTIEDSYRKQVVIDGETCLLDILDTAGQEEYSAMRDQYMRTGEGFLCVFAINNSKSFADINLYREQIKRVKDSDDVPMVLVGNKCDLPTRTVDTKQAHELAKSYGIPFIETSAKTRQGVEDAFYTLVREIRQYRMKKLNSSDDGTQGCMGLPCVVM

CCO[C@@H]1C[C@H]2C(=O)NC3(CCC3)C(=O)N(C)[C@@H](C3CCCC3)C(=O)N(C)[C@H](C(=O)N(C)C)CC(=O)N(C)[C@@H](Cc3cccc(C)c3)C(=O)N[C@@H]([C@@H](C)CC)C(=O)N(C)CC(=O)N(C)[C@H]3CCCCCN(C3=O)[C@@H](Cc3ccc(C(F)(F)F)cc3)C(=O)N(C)CC(=O)N[C@@H](CCc3cc(F)c(C(F)(F)F)c(F)c3)C(=O)N2C1 [PP0942]
NRAS/KRAS (ratio of KD value with respect to NRAS to KD value with respect to KRAS) [1]: B (a compound having 3 or more and less than 10 is denoted as B)
HRAS/KRAS (ratio of KD value with respect to HRAS to KD value with respect to KRAS) [2]: B (a compound having 3 or more and less than 10 is denoted as B)

CCO[C@@H]1C[C@H]2C(=O)NC3(CCC3)C(=O)N(C)[C@@H](C3CCCC3)C(=O)N(C)[C@H](C(=O)N(C)C)CC(=O)N(C)[C@@H](Cc3ccc(C)cc3)C(=O)N[C@@H]([C@@H](C)CC)C(=O)N(C)CC(=O)N(C)[C@H]3CCCCCN(C3=O)[C@@H](Cc3ccc(C(F)(F)F)cc3)C(=O)N(C)CC(=O)N[C@@H](CCc3cc(F)c(C(F)(F)F)c(F)c3)C(=O)N2C1 [PP0943]
NRAS/KRAS (ratio of KD value with respect to NRAS to KD value with respect to KRAS) [1]: B (a compound having 3 or more and less than 10 is denoted as B)
HRAS/KRAS (ratio of KD value with respect to HRAS to KD value with respect to KRAS) [2]: B (a compound having 3 or more and less than 10 is denoted as B)

CCO[C@@H]1C[C@H]2C(=O)NC3(CCC3)C(=O)N(C)[C@@H](C3CCCC3)C(=O)N(CC)[C@H](C(=O)N3CCOCC3)CC(=O)N(C)[C@@H](CC)C(=O)N[C@@H]([C@@H](C)CC)C(=O)N(C)CC(=O)N(C)[C@H]3CCCCCN(C3=O)[C@@H](Cc3ccc(C(F)(F)F)cc3)C(=O)N(C)CC(=O)N[C@@H](CCc3cc(F)c(C(F)(F)F)c(F)c3)C(=O)N2C1 [PP0944]
NRAS/KRAS (ratio of KD value with respect to NRAS to KD value with respect to KRAS) [1]: A (a compound having 10 or more and less than 20 is denoted as A)
HRAS/KRAS (ratio of KD value with respect to HRAS to KD value with respect to KRAS) [2]: A (a compound having 10 or more and less than 20 is denoted as A)

CCO[C@@H]1C[C@H]2C(=O)NC3(CCC3)C(=O)N(C)[C@@H](C3CCCC3)C(=O)N(CC)[C@H](C(=O)N3CCOCC3)CC(=O)N(C)[C@@H](CO)C(=O)N[C@@H]([C@@H](C)CC)C(=O)N(C)CC(=O)N(C)[C@H]3CCCCCN(C3=O)[C@@H](Cc3ccc(C(F)(F)F)cc3)C(=O)N(C)CC(=O)N[C@@H](CCc3cc(F)c(C(F)(F)F)c(F)c3)C(=O)N2C1 [PP0945]
NRAS/KRAS (ratio of KD value with respect to NRAS to KD value with respect to KRAS) [1]: B (a compound having 3 or more and less than 10 is denoted as B)
HRAS/KRAS (ratio of KD value with respect to HRAS to KD value with respect to KRAS) [2]: A (a compound having 10 or more and less than 20 is denoted as A)

CCO[C@@H]1C[C@H]2C(=O)NC3(CCC3)C(=O)N(C)[C@@H](C3CCCC3)C(=O)N(CC)[C@H](C(=O)N3CCOCC3)CC(=O)N(C)[C@@H](COC)C(=O)N[C@@H]([C@@H](C)CC)C(=O)N(C)CC(=O)N(C)[C@H]3CCCCCN(C3=O)[C@@H](Cc3ccc(C(F)(F)F)cc3)C(=O)N(C)CC(=O)N[C@@H](CCc3cc(F)c(C(F)(F)F)c(F)c3)C(=O)N2C1 [PP0946]
NRAS/KRAS (ratio of KD value with respect to NRAS to KD value with respect to KRAS) [1]: A (a compound having 10 or more and less than 20 is denoted as A)
HRAS/KRAS (ratio of KD value with respect to HRAS to KD value with respect to KRAS) [2]: B (a compound having 3 or more and less than 10 is denoted as B)

CCO[C@@H]1C[C@H]2C(=O)NC3(CCC3)C(=O)N(C)[C@@H](C3CCCC3)C(=O)N(CC)[C@H](C(=O)N3CCOCC3)CC(=O)N(C)[C@@H](CCOC)C(=O)N[C@@H]([C@@H](C)CC)C(=O)N(C)CC(=O)N(C)[C@H]3CCCCCN(C3=O)[C@@H](Cc3ccc(C(F)(F)F)cc3)C(=O)N(C)CC(=O)N[C@@H](CCc3cc(F)c(C(F)(F)F)c(F)c3)C(=O)N2C1 [PP0947]
NRAS/KRAS (ratio of KD value with respect to NRAS to KD value with respect to KRAS) [1]: A (a compound having 10 or more and less than 20 is denoted as A)
HRAS/KRAS (ratio of KD value with respect to HRAS to KD value with respect to KRAS) [2]: A (a compound having 10 or more and less than 20 is denoted as A)

CCO[C@@H]1C[C@H]2C(=O)NC3(CCC3)C(=O)N(C)[C@@H](C3CCCC3)C(=O)N(CC)[C@H](C(=O)N3CCOCC3)CC(=O)N(C)[C@@H](CCC(F)F)C(=O)N[C@@H]([C@@H](C)CC)C(=O)N(C)CC(=O)N(C)[C@H]3CCCCCN(C3=O)[C@@H](Cc3ccc(C(F)(F)F)cc3)C(=O)N(C)CC(=O)N[C@@H](CCc3cc(F)c(C(F)(F)F)c(F)c3)C(=O)N2C1 [PP0948]
NRAS/KRAS (ratio of KD value with respect to NRAS to KD value with respect to KRAS) [1]: A (a compound having 10 or more and less than 20 is denoted as A)
HRAS/KRAS (ratio of KD value with respect to HRAS to KD value with respect to KRAS) [2]: A (a compound having 10 or more and less than 20 is denoted as A)

CCO[C@@H]1C[C@H]2C(=O)NC3(CCC3)C(=O)N(C)[C@@H](C3CCCC3)C(=O)N(CC)[C@H](C(=O)N3CCOCC3)CC(=O)N(C)[C@@H](CCC(Cl)Cl)C(=O)N[C@@H]([C@@H](C)CC)C(=O)N(C)CC(=O)N(C)[C@H]3CCCCCN(C3=O)[C@@H](Cc3ccc(C(F)(F)F)cc3)C(=O)N(C)CC(=O)N[C@@H](CCc3cc(F)c(C(F)(F)F)c(F)c3)C(=O)N2C1 [PP0949]
NRAS/KRAS (ratio of KD value with respect to NRAS to KD value with respect to KRAS) [1]: A (a compound having 10 or more and less than 20 is denoted as A)
HRAS/KRAS (ratio of KD value with respect to HRAS to KD value with respect to KRAS) [2]: A (a compound having 10 or more and less than 20 is denoted as A)

CCO[C@@H]1C[C@H]2C(=O)NC3(CCC3)C(=O)N(C)[C@@H](C3CCCC3)C(=O)N(CC)[C@H](C(=O)N3CCOCC3)CC(=O)N(C)[C@@H](Cc3ccccc3)C(=O)N[C@@H]([C@@H](C)CC)C(=O)N(C)CC(=O)N(C)[C@H]3CCCCCN(C3=O)[C@@H](Cc3ccc(C(F)(F)F)cc3)C(=O)N(C)CC(=O)N[C@@H](CCc3cc(F)c(C(F)(F)F)c(F)c3)C(=O)N2C1 [PP0950]
NRAS/KRAS (ratio of KD value with respect to NRAS to KD value with respect to KRAS) [1]: A (a compound having 10 or more and less than 20 is denoted as A)
HRAS/KRAS (ratio of KD value with respect to HRAS to KD value with respect to KRAS) [2]: B (a compound having 3 or more and less than 10 is denoted as B)

CCO[C@@H]1C[C@H]2C(=O)NC3(CCC3)C(=O)N(C)[C@@H](C3CCCC3)C(=O)N(CC)[C@H](C(=O)N3CCOCC3)CC(=O)N(C)[C@@H](CCc3ccccc3)C(=O)N[C@@H]([C@@H](C)CC)C(=O)N(C)CC(=O)N(C)[C@H]3CCCCCN(C3=O)[C@@H](Cc3ccc(C(F)(F)F)cc3)C(=O)N(C)CC(=O)N[C@@H](CCc3cc(F)c(C(F)(F)F)c(F)c3)C(=O)N2C1 [PP0953]
NRAS/KRAS (ratio of KD value with respect to NRAS to KD value with respect to KRAS) [1]: A (a compound having 10 or more and less than 20 is denoted as A)
HRAS/KRAS (ratio of KD value with respect to HRAS to KD value with respect to KRAS) [2]: A (a compound having 10 or more and less than 20 is denoted as A)

CC[C@H](C)[C@@H]1NC(=O)[C@H](CC(C)C)N(C)C(=O)C[C@@H](C(=O)N2CCOCC2)N(CC)C(=O)[C@H](C2CCCC2)N(C)C(=O)C2(CCC2)NC(=O)[C@@H]2CC(F)(F)CN2C(=O)[C@H](CCc2cc(F)c(C(F)(F)F)c(F)c2)NC(=O)CN(C)C(=O)[C@H](Cc2ccc(C(F)(F)F)cc2)N2CCCCC[C@@H](C2=O)N(C)C(=O)CN(C)C1=O [PP0954]
NRAS/KRAS (ratio of KD value with respect to NRAS to KD value with respect to KRAS) [1]: A (a compound having 10 or more and less than 20 is denoted as A)
HRAS/KRAS (ratio of KD value with respect to HRAS to KD value with respect to KRAS) [2]: A (a compound having 10 or more and less than 20 is denoted as A)

CC[C@H](C)[C@@H]1NC(=O)[C@H](CC(C)C)N(C)C(=O)C[C@@H](C(=O)N2CCOCC2)N(CC)C(=O)[C@H](C2CCCC2)N(C)C(=O)C2(CCC2)NC(=O)[C@@H]2[C@H](O)CCN2C(=O)[C@H](CCc2cc(F)c(C(F)(F)F)c(F)c2)NC(=O)CN(C)C(=O)[C@H](Cc2ccc(C(F)(F)F)cc2)N2CCCCC[C@@H](C2=O)N(C)C(=O)CN(C)C1=O [PP0955]
NRAS/KRAS (ratio of KD value with respect to NRAS to KD value with respect to KRAS) [1]: A (a compound having 10 or more and less than 20 is denoted as A)
HRAS/KRAS (ratio of KD value with respect to HRAS to KD value with respect to KRAS) [2]: A (a compound having 10 or more and less than 20 is denoted as A)

CCO[C@@H]1C[C@H]2C(=O)NC3(CC=CC3)C(=O)N(C)[C@@H](C3CCCC3)C(=O)N(CC)[C@H](C(=O)N3CCOCC3)CC(=O)N(C)[C@@H](CC(C)C)C(=O)N[C@@H]([C@@H](C)CC)C(=O)N(C)CC(=O)N(C)[C@H]3CCCCCN(C3=O)[C@@H](Cc3ccc(C(F)(F)F)cc3)C(=O)N(C)CC(=O)N[C@@H](CCc3cc(F)c(C(F)(F)F)c(F)c3)C(=O)N2C1 [PP0956]
NRAS/KRAS (ratio of KD value with respect to NRAS to KD value with respect to KRAS) [1]: A (a compound having 10 or more and less than 20 is denoted as A)
HRAS/KRAS (ratio of KD value with respect to HRAS to KD value with respect to KRAS) [2]: A (a compound having 10 or more and less than 20 is denoted as A)

CCO[C@@H]1C[C@H]2C(=O)NC(C)(C)C(=O)N(C)[C@@H](C3CCCC3)C(=O)N(CC)[C@H](C(=O)N3CCOCC3)CC(=O)N(C)[C@@H](CC(C)C)C(=O)N[C@@H]([C@@H](C)CC)C(=O)N(C)CC(=O)N(C)[C@H]3CCCCCN(C3=O)[C@@H](Cc3ccc(C(F)(F)F)cc3)C(=O)N(C)CC(=O)N[C@@H](CCc3cc(F)c(C(F)(F)F)c(F)c3)C(=O)N2C1 [PP0958]
NRAS/KRAS (ratio of KD value with respect to NRAS to KD value with respect to KRAS) [1]: B (a compound having 3 or more and less than 10 is denoted as B)
HRAS/KRAS (ratio of KD value with respect to HRAS to KD value with respect to KRAS) [2]: B (a compound having 3 or more and less than 10 is denoted as B)

CC[C@H](C)[C@@H]1NC(=O)[C@H](CC)N(C)C(=O)C[C@@H](C(=O)N2CCOCC2)N(C)C(=O)[C@H](C2CCCC2)N(C)C(=O)C2(CCCC2)NC(=O)[C@@H]2CCCN2C(=O)[C@H](CCc2ccc(C(F)(F)F)c(Cl)c2)NC(=O)CN(C)C(=O)[C@H](Cc2ccc(F)cc2)N2CCCCC[C@@H](C2=O)N(C)C(=O)CN(C)C1=O [PP0959]
NRAS/KRAS (ratio of KD value with respect to NRAS to KD value with respect to KRAS) [1]: B (a compound having 3 or more and less than 10 is denoted as B)
HRAS/KRAS (ratio of KD value with respect to HRAS to KD value with respect to KRAS) [2]: B (a compound having 3 or more and less than 10 is denoted as B)

CC[C@H](C)[C@@H]1NC(=O)[C@H](COC)N(C)C(=O)C[C@@H](C(=O)N2CCOCC2)N(C)C(=O)[C@H](C2CCCC2)N(C)C(=O)C2(CCCC2)NC(=O)[C@@H]2CCCN2C(=O)[C@H](CCc2ccc(C(F)(F)F)c(Cl)c2)NC(=O)CN(C)C(=O)[C@H](Cc2ccc(F)cc2)N2CCCCC[C@@H](C2=O)N(C)C(=O)CN(C)C1=O [PP0960]
NRAS/KRAS (ratio of KD value with respect to NRAS to KD value with respect to KRAS) [1]: B (a compound having 3 or more and less than 10 is denoted as B)
HRAS/KRAS (ratio of KD value with respect to HRAS to KD value with respect to KRAS) [2]: B (a compound having 3 or more and less than 10 is denoted as B)
